Experimental data published in patent US8563559B2 (Rigel Pharmaceuticals, Inc., priority 2006, dated 2013).

The compounds below were run against T1, Axl (Homo sapiens, UniProt P30530) (assay: Phospho-AKT in-cell Western assay (inhibition of Axl activity)). Settings: Table 1, formula (Ia); Hela cells, Axl antibody cross-linking stimulation, phospho-Akt chemiluminescence normalized to relative cell number.
T1 construct: endogenous in cells; host or cells: HeLa
T1 sequence (P30530 26-894): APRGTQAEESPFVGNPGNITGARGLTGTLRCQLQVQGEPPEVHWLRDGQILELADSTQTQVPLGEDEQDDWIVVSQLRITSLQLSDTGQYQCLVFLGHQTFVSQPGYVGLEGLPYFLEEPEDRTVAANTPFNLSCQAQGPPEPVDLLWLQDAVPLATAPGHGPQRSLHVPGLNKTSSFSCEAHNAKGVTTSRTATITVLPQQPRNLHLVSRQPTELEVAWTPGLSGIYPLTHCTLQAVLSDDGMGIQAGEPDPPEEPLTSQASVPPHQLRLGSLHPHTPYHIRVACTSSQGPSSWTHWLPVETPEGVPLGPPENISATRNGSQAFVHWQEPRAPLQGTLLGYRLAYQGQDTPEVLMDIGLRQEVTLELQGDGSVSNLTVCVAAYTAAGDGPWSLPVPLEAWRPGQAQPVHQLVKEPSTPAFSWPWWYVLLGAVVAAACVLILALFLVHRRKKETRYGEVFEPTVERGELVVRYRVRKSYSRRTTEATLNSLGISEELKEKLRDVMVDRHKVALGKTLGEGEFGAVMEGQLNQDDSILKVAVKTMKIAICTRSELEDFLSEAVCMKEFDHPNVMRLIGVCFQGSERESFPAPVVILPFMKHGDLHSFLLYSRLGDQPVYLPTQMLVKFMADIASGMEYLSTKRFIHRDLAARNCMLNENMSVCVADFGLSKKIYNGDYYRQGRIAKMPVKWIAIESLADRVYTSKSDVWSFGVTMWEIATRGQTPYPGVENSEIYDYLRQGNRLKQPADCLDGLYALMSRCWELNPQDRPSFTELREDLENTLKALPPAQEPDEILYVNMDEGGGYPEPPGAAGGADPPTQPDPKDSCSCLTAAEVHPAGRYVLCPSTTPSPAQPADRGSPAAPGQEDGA
Assay type: cell-based
Outline: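 HeLa cells were starved 24 h in 0.5% FCS with Axl/Fc 500 ng/mL, pre-treated with compound for 1 h at 37 °C, then stimulated 5 min by anti-Axl antibody cross-linking. Fixed cells were probed for phospho-AKT with an HRP-linked in-cell Western and read by chemiluminescence.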
In the case of `CCN(CC)C1CCN(c2ccc(Nc3ncc(C(F)(F)F)c(N[C@@]4(C)[C@@H](C(=O)NC)C[C@H]5C[C@@H]4C5(C)C)n3)cc2F)CC1` [Compound 52, (1R,2R,3S,5R)-2-(5-trifluoromethyl-2-(3-fluoro-4-(4-(diethylamino)piperidin-1-yl)phenylamino)pyrimidin-4-ylamino)-N,2,6,6-tetramethylbicyclo[3.1.1]heptane-3-carboxamide], the IC50 is reported as < 1000 nM. For `CNC(=O)[C@H]1C[C@H]2C[C@H](C2(C)C)[C@@]1(C)Nc1nc(Nc2ccc(N3CCC(N4CCC(C)CC4)CC3)c(F)c2)ncc1Cl` [Compound 54, (1R,2R,3S,5R)-2-(5-chloro-2-(3-fluoro-4-(4-(4-methylpiperidin-1-yl)piperidin-1-yl)phenylamino)pyrimidin-4-ylamino)-N,2,6,6-tetramethylbicyclo[3.1.1]heptane-3-carboxamide], the IC50 was < 1000 nM. In the case of `CNC(=O)[C@H]1C[C@H]2C[C@H](C2(C)C)[C@@]1(C)Nc1nc(Nc2ccc(N3CCC(N4CCC(C)CC4)CC3)c(F)c2)ncc1F` [Compound 55, (1R,2R,3S,5R)-2-(5-fluoro-2-(3-fluoro-4-(4-(4-methylpiperidin-1-yl)piperidin-1-yl)phenylamino)pyrimidin-4-ylamino)-N,2,6,6-tetramethylbicyclo[3.1.1]heptane-3-carboxamide], the IC50 is reported as < 1000 nM.

Same assay, conditions: Table 3, formula (Ic); Hela cells, Axl antibody cross-linking stimulation, phospho-Akt chemiluminescence normalized to relative cell number
`CNC(=O)[C@H]1C[C@H]2C[C@H](C2(C)C)[C@@]1(C)Nc1nc(Nc2ccc3c(c2)N(CCN(C)C)CCO3)ncc1F` [Compound 51, (1R,2R,3S,5R)-2-(5-fluoro-2-((3,4-dihydro-4-(2-(dimethylamino)ethyl)-2H-benzo[b][1,4]oxazin-6-yl)amino)pyrimidin-4-ylamino)-N,2,6,6-tetramethylbicyclo[3.1.1]heptane-3-carboxamide] was tested, and the IC50 was 1000 to 10000 nM. For `CCN(CC)CCN1CCOc2cc(Nc3ncc(C(F)(F)F)c(N[C@@]4(C)[C@@H](C(=O)NC)C[C@H]5C[C@@H]4C5(C)C)n3)ccc21` [Compound 53, (1R,2R,3S,5R)-2-(5-trifluoromethyl-2-((3,4-dihydro-4-(2-(diethylamino)ethyl)-2H-benzo[b][1,4]oxazin-7-yl)-amino)pyrimidin-4-ylamino)-N,2,6,6-tetramethylbicyclo[3.1.1]heptane-3-carboxamide], the IC50 was < 1000 nM. For `CNC(=O)[C@H]1C[C@H]2C[C@H](C2(C)C)[C@@]1(C)Nc1nc(Nc2ccc3c(c2)OCCN3CCN2CCCCC2)ncc1Cl` [Compound 56, (1R,2R,3S,5R)-2-(5-chloro-2-((3,4-dihydro-4-(2-(piperidin-1-yl)ethyl)-2H-benzo[b][1,4]oxazin-7-yl)amino)pyrimidin-4-ylamino)-N,2,6,6-tetramethylbicyclo[3.1.1]heptane-3-carboxamide], the IC50 was < 1000 nM. `CNC(=O)[C@H]1C[C@H]2C[C@H](C2(C)C)[C@@]1(C)Nc1nc(Nc2ccc3c(c2)OCCN3CCN2CCCCC2)ncc1F` [Compound 57, (1R,2R,3S,5R)-2-(5-fluoro-2-((3,4-dihydro-4-(2-(piperidin-1-yl)ethyl)-2H-benzo[b][1,4]oxazin-7-yl)amino)pyrimidin-4-ylamino)-N,2,6,6-tetramethylbicyclo[3.1.1]heptane-3-carboxamide] was tested, and the IC50 was < 1000 nM. In the case of `CNC(=O)[C@H]1C[C@H]2C[C@H](C2(C)C)[C@@]1(C)Nc1nc(Nc2ccc3c(c2)OCCN3CCN2CCOCC2)ncc1Cl` [Compound 58, (1R,2R,3S,5R)-2-(5-chloro-2-((3,4-dihydro-4-(2-(morpholin-4-yl)ethyl)-2H-benzo[b][1,4]oxazin-7-yl)amino)pyrimidin-4-ylamino)-N,2,6,6-tetramethylbicyclo[3.1.1]heptane-3-carboxamide], the IC50 is reported as < 1000 nM. Compound `CNC(=O)[C@H]1C[C@H]2C[C@H](C2(C)C)[C@@]1(C)Nc1nc(Nc2ccc3c(c2)OCCN3CCN2CCOCC2)ncc1F` [Compound 59, (1R,2R,3S,5R)-2-(5-fluoro-2-((3,4-dihydro-4-(2-(morpholin-4-yl)ethyl)-2H-benzo[b][1,4]oxazin-7-yl)amino)pyrimidin-4-ylamino)-N,2,6,6-tetramethylbicyclo[3.1.1]heptane-3-carboxamide] has an IC50 of 1000 to 10000 nM.
